Results: patent US8697888B2, “Substituted (1-(methylsulfonyl)azetidin-3-yl)(heterocycloalkyl)methanone analogs as antagonists of muscarinic acetylcholine M1 receptors” (Vanderbilt University, priority 2012, dated 2014)
Like-named read-outs stand apart in the source and are kept apart here. Marks after values point to notes of the source that are not given here.

Target: T1, mAChR M1 (UniProt P11229)
T1 sequence (P11229 1-460): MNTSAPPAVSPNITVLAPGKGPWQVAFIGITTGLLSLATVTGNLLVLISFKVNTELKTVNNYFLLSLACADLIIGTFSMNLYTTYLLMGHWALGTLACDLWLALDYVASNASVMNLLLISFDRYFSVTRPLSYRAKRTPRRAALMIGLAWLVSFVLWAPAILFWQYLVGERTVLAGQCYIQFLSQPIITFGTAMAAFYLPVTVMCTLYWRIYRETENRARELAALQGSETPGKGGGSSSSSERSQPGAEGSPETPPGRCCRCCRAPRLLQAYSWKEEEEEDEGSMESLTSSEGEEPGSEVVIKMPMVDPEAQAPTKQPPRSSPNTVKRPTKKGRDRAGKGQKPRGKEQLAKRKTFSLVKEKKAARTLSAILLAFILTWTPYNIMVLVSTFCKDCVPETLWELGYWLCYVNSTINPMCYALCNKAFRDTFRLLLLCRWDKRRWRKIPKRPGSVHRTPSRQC
Assay: mAChR M1 cell-based functional assay (calcium mobilization, antagonist mode)
Source text: Chinese hamster ovary (CHO-K1) cells stably expressing rat (r)M1 were purchased from the American Type Culture Collection and cultured according to their indicated protocol. CHO cells stably expressing human (h)M2, hM3, and hM5 were described previously (Levey, et al., 1991); hM1 and hM4 cDNAs were purchased from Missouri S&T cDNA Resource; rM4 cDNA was provided by T. I. Bonner (National Institutes of Health, Bethesda, Md.). rM2 and rM3 were cloned from a rat brain cDNA library and sequence verified. hM1, rM2, rM3, hM4, and rM4 cDNAs were used to stably transfect CHO-K1 cells purchased from the American Type Culture Collection using Lipofectamine-2000. To make stable rM2, hM2, rM3, hM4, and rM4 cell lines for use in calcium mobilization assays, these cells also were stably transfected with a chimeric G-protein (Gqi5) (provided by B. R. Conklin, University of California, San Francisco) using Lipofectamine 2000. rM1, hM1, rM3, hM3, rM5, and hM5 cells were grown in Ham's F-12 medium containing 10% heat-inactivated fetal bovine serum (FBS), 20 mM HEPES, and 50 μg/mL G418 sulfate. rM2-Gqi5, hM2-Gqi5, and hM4-Gqi5 cells were grown in the same medium also containing 500 μg/mL Hygromycin B. Stable rM4-Gqi5 cells were grown in DMEM containing 10% heat-inactivated FBS, 20 mM HEPES, 400 μg/mL G418 sulfate, and […].
For high throughput measurement of antagonist inhibited increases in intracellular calcium, CHO-K1 cells stably expressing muscarinic receptors were plated in growth medium lacking G418 and hygromycin at 15,000 cells/20 μL/well in Greiner 384-well black-walled, tissue culture (TC)-treated, clear-bottom plates (VWR). Cells were incubated overnight at 37° C. and 5% CO2. The next day, cells were washed using an ELX 405 (BioTek) with four washes (80 μL) of assay buffer then aspirated to 20 μL. Next, 20 μL of 16 μM Fluo-4/acetoxymethyl ester (Invitrogen, Carlsbad, Calif.) prepared as a 2.3 mM stock in DMSO and mixed in a 1:1 ratio with 10% (w/v) Pluronic F-127 and diluted in assay buffer was added to the wells and the cell plates were incubated for 50 min at 37° C. and 5% CO2. Dye was removed by washing with the ELX 405 (four 80 μL washes of assay buffer) then aspirated to 20 μL. Compound master plates were formatted in an 11 point CRC format (1:3 dilutions) in 100% DMSO with a starting concentration of 10 mM using the BRAVO liquid handler (Agilent). Test compound CRCs were then transferred to daughter plates (240 nL) using the Echo acoustic plate reformatter (Labcyte, Sunnyvale, Calif.) and then diluted into assay buffer (40 μL) to a 2× stock using a Thermo Fisher Combi (Thermo Fisher Scientific, Waltham, Mass.).
Calcium flux was measured using the Functional Drug Screening System (FDSS) 6000 (Hamamatsu Corporation, Tokyo, Japan) as an increase in the fluorescent static ratio. Compounds were applied to cells (20 μL, 2×) using the automated system of the FDSS 6000 at 4 s into the 300 s protocol and the data were collected at 1 Hz. At 144 s into the 300 s protocol, 10 μL of an EC20 concentration of the muscarinic receptor agonist acetylcholine was added (5×), followed by the addition of 12 μL an EC80 concentration of acetylcholine at the 230 s time point (5×). Agonist activity was analyzed as a concentration-dependent increase in calcium mobilization upon compound addition. Positive allosteric modulator activity was analyzed as a concentration-dependent increase in the EC20 acetylcholine response. Antagonist activity was analyzed as a concentration-dependent decrease in the EC80 acetylcholine response. Concentration-response curves were generated using a four-parameter logistical equation in XLfit curve fitting software (IDBS, Bridgewater, N.J.) for Excel (Microsoft, Redmond, Wash.) or Prism (GraphPad Software, Inc., San Diego, Calif.).
The calcium mobilization assay was used to determine “potency”.

[1] = activity remaining at top dose of 30 μM test compound, as percentage of the response to an approx. EC80 concentration of ACh
[2] = concentration of antagonist decreasing calcium flux by 50%; EC80 acetylcholine response; CHO-K1 cells expressing mAChR M1; read-out: Potency (IC50)
[3] = dash = baseline or about zero remaining activity (table footnote)

SMILES	Remaining Activity (%) [1]	IC50 [2]	Remaining Activity (%) [3]	IC50 (read-out: Potency (IC50); concentration of antagonist decreasing calcium flux by 50%; EC80 acetylcholine response; CHO-K1 cells expressing mAChR M1)
O=C1CCc2cc(S(=O)(=O)N3CC(C(=O)N4CCN(c5ccncc5)CC4)C3)ccc2N1 [B79]	≧80%	> 10000 nM		
Cn1ccnc1N1CCN(C(=O)C2CN(S(=O)(=O)c3cccc4nonc34)C2)CC1 [B62]	≧80%	> 10000 nM		
O=C(C1CN(S(=O)(=O)C2CCCCC2)C1)N1CC2CN(c3ccncc3)CC2C1 (stereo not drawn) [B86]	≧80%	> 10000 nM		
CN1CCN(C(=O)C2CN(S(=O)(=O)c3cccc4cnccc34)C2)CC1 [B80]	≧80%	> 10000 nM		
O=C(C1CN(S(=O)(=O)c2cccc3nonc23)C1)N1CCN(c2ccncc2)CC1 [B8]		290 nM	— (Unless otherwise indicated with a numerical value, the percent remaining activity is baseline or about zero, i.e. as indicated by “—”)	
O=C(C1CN(S(=O)(=O)c2cccc3c(Cl)nccc23)C1)N1CCN(c2ccncc2)CC1 [B17]		640 nM	— (Unless otherwise indicated with a numerical value, the percent remaining activity is baseline or about zero, i.e. as indicated by “—”)	
O=C(C1CN(S(=O)(=O)c2cccc3nonc23)C1)N1CCC(O)(c2ccncc2)CC1 [B61]	≧80% **	> 10000 nM		
Cc1ccnc(S(=O)(=O)N2CC(C(=O)N3CCN(c4ccncc4)CC3)C2)c1 [B40]	41%	> 10000 nM		
O=C(C1CN(S(=O)(=O)c2ccc3c(c2)CCO3)C1)N1CCN(c2ccncc2)CC1 [B5]		95 nM	— (Unless otherwise indicated with a numerical value, the percent remaining activity is baseline or about zero, i.e. as indicated by “—”)	
O=C(C1CN(S(=O)(=O)c2cccc(OC(F)(F)F)c2)C1)N1CCN(c2ccncc2)CC1 [B69]	≧80%	> 10000 nM		
O=C(C1CN(S(=O)(=O)c2ccc(C(F)(F)F)nc2)C1)N1CCN(c2ccncc2)CC1 [B41]	37%	> 10000 nM		
O=C(C1CN(S(=O)(=O)c2cccc(-n3cnnn3)c2)C1)N1CCN(c2ccncc2)CC1 [B72]	≧80%	> 10000 nM		
O=C(C1CN(S(=O)(=O)c2cccc3cnccc23)C1)N1CCC(c2cccnc2)C1 (stereo not drawn) [B48]	30%	> 10000 nM		
O=C(C1CN(S(=O)(=O)c2cc(Cl)ccc2F)C1)N1CCN(c2ccncc2)CC1 [B35]	32%	> 10000 nM		
O=C(C1CN(S(=O)(=O)c2cccc(Cl)c2F)C1)N1CCN(c2ccncc2)CC1 [B34]	11%			
O=C(C1CN(S(=O)(=O)c2ccncc2)C1)N1CCN(c2ccncc2)CC1 [B67]	≧80%	> 10000 nM		
O=C(C1CN(S(=O)(=O)c2ccc3occc3c2)C1)N1CCN(c2ccncc2)CC1 [B24]		1500 nM	— (Unless otherwise indicated with a numerical value, the percent remaining activity is baseline or about zero, i.e. as indicated by “—”)	

SMILES	Remaining Activity (%) [1]	IC50 [2]	Remaining Activity (%) [3]	IC50 (read-out: Potency (IC50); concentration of antagonist decreasing calcium flux by 50%; EC80 acetylcholine response; CHO-K1 cells expressing mAChR M1)
Cn1ccc(-c2ccccc2S(=O)(=O)N2CC(C(=O)N3CCN(c4ccncc4)CC3)C2)n1 [B64]	≧80%	> 10000 nM		
O=C(C1CN(S(=O)(=O)c2ccc3c(c2)OCO3)C1)N1CCN(c2ccncc2)CC1 [B9]			— (Unless otherwise indicated with a numerical value, the percent remaining activity is baseline or about zero, i.e. as indicated by “—”)	
O=C(C1CN(S(=O)(=O)c2ccc3[nH]ncc3c2)C1)N1CCN(c2ccncc2)CC1 [B76]	≧80%	> 10000 nM		
O=C(C1CN(S(=O)(=O)c2ccc3cn[nH]c3c2)C1)N1CCN(c2ccncc2)CC1 [B37]	26%	> 10000 nM		
O=C(C1CN(S(=O)(=O)c2cccc(Cl)c2)C1)N1CCN(c2ccncc2)CC1 [B36]	27%			
Cc1noc(C)c1S(=O)(=O)N1CC(C(=O)N2CCN(c3ccncc3)CC2)C1 [B25]		1900 nM	— (Unless otherwise indicated with a numerical value, the percent remaining activity is baseline or about zero, i.e. as indicated by “—”)	
CC(C)(C)CS(=O)(=O)N1CC(C(=O)N2CC3CN(c4ccncc4)CC3C2)C1 (stereo not drawn) [B55]	56%			> 10000 nM
O=C(C1CN(S(=O)(=O)c2cccc3cnccc23)C1)N1CC2CN(c3ccccn3)CC2C1 (stereo not drawn) [B4]		87 nM	— (Unless otherwise indicated with a numerical value, the percent remaining activity is baseline or about zero, i.e. as indicated by “—”)	
CCC(C)S(=O)(=O)N1CC(C(=O)N2CCN(c3ccncc3)CC2)C1 (stereo not drawn) [B46]	52%	> 10000 nM		
CN1CCOc2cc(S(=O)(=O)N3CC(C(=O)N4CCN(c5ccncc5)CC4)C3)cnc21 [B73]	≧80%	> 10000 nM		
Cc1nc(C(F)(F)F)c(S(=O)(=O)N2CC(C(=O)N3CCN(c4ccncc4)CC3)C2)s1 [B27]		2000 nM	— (Unless otherwise indicated with a numerical value, the percent remaining activity is baseline or about zero, i.e. as indicated by “—”)	
O=C(C1CN(S(=O)(=O)c2cccnc2Cl)C1)N1CC2CN(c3ccncc3)CC2C1 (stereo not drawn) [B54]		930 nM	— (Unless otherwise indicated with a numerical value, the percent remaining activity is baseline or about zero, i.e. as indicated by “—”)	
Cc1cc2c(S(=O)(=O)N3CC(C(=O)N4CC5CN(c6ccncc6)CC5C4)C3)cccc2cn1 (stereo not drawn) [B60]			— (Unless otherwise indicated with a numerical value, the percent remaining activity is baseline or about zero, i.e. as indicated by “—”)	
O=C(C1CN(S(=O)(=O)c2cccc3nonc23)C1)N1CCN(c2ccc(Br)cn2)CC1 [B11]		350 nM	— (Unless otherwise indicated with a numerical value, the percent remaining activity is baseline or about zero, i.e. as indicated by “—”)	
O=C(C1CN(S(=O)(=O)c2cccc3cnccc23)C1)N1CC2CN(c3ccncc3)CC2C1 (stereo not drawn) [B3]		57 nM	— (Unless otherwise indicated with a numerical value, the percent remaining activity is baseline or about zero, i.e. as indicated by “—”)	
O=C(C1CN(S(=O)(=O)c2cccc3c(Cl)nc(Cl)cc23)C1)N1CCN(c2ccncc2)CC1 [B30]			— (Unless otherwise indicated with a numerical value, the percent remaining activity is baseline or about zero, i.e. as indicated by “—”)	
O=C(C1CN(S(=O)(=O)c2cccc3nonc23)C1)N1CCN(c2ccccn2)CC1 [B31]	11%	> 10000 nM		
